# Laboratory results published in ChEMBL document CHEMBL4725299, “Design and synthesis of peptidic partial agonists of human neuromedin U receptor 1 with enhanced serum stability” (Bioorg Med Chem Lett, 2020).
# Starred links: 1 amine or outer side, 2 acyl side, 3 side chain; linkers in the order of their positions; H or OH if unused. Non-standard residues stand in square brackets, D forms with d. Residues, ends and D or L forms follow the SMILES beside them. *: point of attachment. X1 = O=C([C@H](Cc1ccc(Cc2ccccc2)cc1)N[*:1])[*:2]; Acetyl(2-naphthyloxy) = O=C(COc1ccc2ccccc2c1)*; Propanoyl(3-(3-pyridyl)) = O=C(CCc1cccnc1)*; Bip = N[C@@H](Cc1ccc(-c2ccccc2)cc1)C(=O)O; αMeW = C[C@](N)(Cc1c[nH]c2ccccc12)C(=O)O; 2Nal = N[C@@H](Cc1ccc2ccccc2c1)C(=O)O; Acetyl(2-thienyl) = O=C(Cc1cccs1)*; αMeF = C[C@](N)(Cc1ccccc1)C(=O)O; Tic = O=C(O)[C@@H]1Cc2ccccc2CN1
# Columns and labels:
# [1] = molecular target: T1, Neuromedin-U receptor 1 (Homo sapiens, UniProt Q9HB89); test: Agonist activity at human NMUR1 expressed in CHO cells at 100 nM by calcium mobilization assay relative to control; format: cell-based; details: read-out: Activity
# T1 sequence (Q9HB89 whole entry): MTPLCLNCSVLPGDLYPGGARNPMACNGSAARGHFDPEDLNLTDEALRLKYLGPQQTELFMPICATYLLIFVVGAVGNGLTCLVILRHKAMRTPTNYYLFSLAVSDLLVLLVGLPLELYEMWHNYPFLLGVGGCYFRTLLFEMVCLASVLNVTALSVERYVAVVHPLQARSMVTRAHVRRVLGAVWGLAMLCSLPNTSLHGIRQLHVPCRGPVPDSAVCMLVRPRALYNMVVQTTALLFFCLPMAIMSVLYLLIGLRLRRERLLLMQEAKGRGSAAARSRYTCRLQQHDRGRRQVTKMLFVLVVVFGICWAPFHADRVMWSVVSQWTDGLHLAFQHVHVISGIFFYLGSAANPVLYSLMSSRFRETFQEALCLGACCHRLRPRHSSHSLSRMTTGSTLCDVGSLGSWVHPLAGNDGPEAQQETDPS
# [2] = Stability of the compound in 25% human serum assessed as residual rate at 50 uM incubated for 10 mins at 37 degreeC; format: ADME, cell-free; details: read-out: Stabilty
# [3] = Stability of the compound in 25% human serum assessed as intact residual rate at 50 uM incubated for 180 mins at 37 degreeC; format: ADME, cell-free; details: read-out: Stabilty
# [4] = molecular target: T2, Neuromedin-U receptor 2 (Homo sapiens, UniProt Q9GZQ4); test: Agonist activity at human NMUR2 expressed in CHO cells at 100 nM by calcium mobilization assay; format: cell-based; details: 0.1 µM
# T2 sequence (Q9GZQ4 whole entry): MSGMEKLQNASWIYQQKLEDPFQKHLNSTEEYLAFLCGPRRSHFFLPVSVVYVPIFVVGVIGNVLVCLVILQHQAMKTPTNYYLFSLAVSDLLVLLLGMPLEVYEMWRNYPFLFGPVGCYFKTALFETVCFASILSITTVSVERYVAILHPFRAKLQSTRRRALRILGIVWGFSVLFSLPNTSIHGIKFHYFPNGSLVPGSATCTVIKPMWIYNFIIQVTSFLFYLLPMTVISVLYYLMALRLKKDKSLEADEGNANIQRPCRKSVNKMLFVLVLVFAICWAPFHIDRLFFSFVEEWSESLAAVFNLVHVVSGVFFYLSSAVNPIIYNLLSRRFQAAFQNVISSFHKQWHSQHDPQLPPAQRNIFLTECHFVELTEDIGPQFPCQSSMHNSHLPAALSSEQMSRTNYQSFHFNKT
# [5] = molecular target: T2, Neuromedin-U receptor 2; test: Agonist activity at human NMUR2 expressed in CHO cells at 10 nM by calcium mobilization assay; format: cell-based; details: 0.01 µM
# [6] = molecular target: T1, Neuromedin-U receptor 1; test: Agonist activity at human NMUR1 expressed in CHO cells at 10 nM by calcium mobilization assay; format: cell-based; details: 0.01 µM
# [7] = molecular target: T1, Neuromedin-U receptor 1; test: Agonist activity at human NMUR1 expressed in CHO cells at 1000 nM by calcium mobilization assay relative to control; format: cell-based; details: read-out: Activity
# [8] = molecular target: T1, Neuromedin-U receptor 1; test: Agonist activity at human NMUR1 expressed in CHO cells by calcium mobilization assay; format: cell-based
# [9] = molecular target: T1, Neuromedin-U receptor 1; test: Agonist activity at human NMUR1 expressed in CHO cells at 10 nM by calcium mobilization assay relative to control; format: cell-based; details: read-out: Activity
# [10] = molecular target: T2, Neuromedin-U receptor 2; test: Agonist activity at human NMUR2 expressed in CHO cells at 1000 nM by calcium mobilization assay relative to control; format: cell-based; details: read-out: Activity
# [11] = molecular target: T1, Neuromedin-U receptor 1; test: Agonist activity at human NMUR1 expressed in CHO cells assessed as intrinsic activity at 10^-6 to 10^-12 M by calcium mobilization assay relative to control; format: cell-based; details: read-out: Intrinsic activity
# [12] = Selectivity index, ratio of EC50 for agonist activity for human NMUR2 expressed in CHO cells to EC50 for agonist activity for human NMUR1 expressed in CHO cells by calcium mobilization assay; format: cell-based
# [13] = molecular target: T2, Neuromedin-U receptor 2; test: Agonist activity at human NMUR2 expressed in CHO cells by calcium mobilization assay; format: cell-based
# [14] = Drug metabolism in 25% human serum assessed as M2 metabolite formation at 50 uM incubated for 180 mins at 37 degreeC by HPLC analysis; format: ADME, cell-free; details: 3 h
# [15] = Drug metabolism in 25% human serum assessed as M1 metabolite formation at 50 uM incubated for 180 mins at 37 degreeC by HPLC analysis; format: ADME, cell-free; details: 3 h
# [16] = Half life of the compound in 25% human serum; format: ADME, cell-free
# [17] = molecular target: T2, Neuromedin-U receptor 2; test: Agonist activity at human NMUR2 expressed in CHO cells at 10 nM by calcium mobilization assay relative to control; format: cell-based; details: read-out: Activity
# [18] = molecular target: T3, Neuromedin-U receptor 1 (Homo sapiens) (UniProt Q9HB89); test: Partial agonist activity at human NMUR1 expressed in CHO cells assessed as intrinsic activity at 10^-6 to 10^-12 M by calcium mobilization assay relative to control; format: functional, cell-based; details: filed as partial agonist, dose pM 1-1000000
# T3 sequence (whole entry): T1 sequence (Q9HB89 whole entry)
# [19] = molecular target: T1, Neuromedin-U receptor 1; test: Partial agonist activity at human NMUR1 expressed in CHO cells by calcium mobilization assay; format: functional, cell-based
smiles,measurement,setting,value
N=C(N)NCCC[C@H](NC(=O)[C@@H]1CCCN1C(=O)[C@H](CCCNC(=N)N)NC(=O)[C@H](Cc1ccc(Cc2ccccc2)cc1)NC(=O)[C@H](Cc1c[nH]c2ccccc12)NC(=O)Cc1cccs1)C(=O)N[C@@H](CC(N)=O)C(N)=O ({Acetyl(2-thienyl)}-W[X1]RPRN-NH2),activity at 0.1 µM,[1],88%
same,"remaining at 10 min, 50 µM",[2],95%
COc1ccc(C[C@H](NC(=O)[C@H](Cc2c[nH]c3ccccc23)NC(=O)Cc2cccs2)C(=O)N[C@@H](CCCNC(=N)N)C(=O)N2CCC[C@H]2C(=O)N[C@@H](CCCNC(=N)N)C(=O)N[C@@H](CC(N)=O)C(N)=O)cc1 ({Acetyl(2-thienyl)}-WY(Me)RPRN-NH2),"remaining at 10 min, 50 µM",[2],48%
N=C(N)NCCC[C@H](NC(=O)[C@@H]1CCCN1C(=O)[C@H](CCCNC(=N)N)NC(=O)[C@H](Cc1ccc(-c2ccccc2)cc1)NC(=O)[C@H](Cc1c[nH]c2ccccc12)NC(=O)Cc1cccs1)C(=O)N[C@@H](CC(N)=O)C(N)=O ({Acetyl(2-thienyl)}-W[Bip]RPRN-NH2),"remaining at 3 h, 50 µM",[3],35%
same,activity at 0.1 µM,[1],88%
same,Activity,[4],Not Active
same,"remaining at 10 min, 50 µM",[2],95%
N=C(N)NCCC[C@H](NC(=O)[C@@H]1CCCN1C(=O)[C@H](CCCNC(=N)N)NC(=O)[C@H](Cc1ccc(-c2ccccc2)cc1)NC(=O)COc1ccc2ccccc2c1)C(=O)N[C@@H](CC(N)=O)C(N)=O ({Acetyl(2-naphthyloxy)}-[Bip]RPRN-NH2),Activity,[5],Not Active
same,Activity,[6],Not Active
same,activity at 1 µM,[7],28%
C[C@@](Cc1ccccc1)(NC(=O)[C@H](Cc1ccc2ccccc2c1)NC(=O)CCc1cccnc1)C(=O)N[C@@H](CCCNC(=N)N)C(=O)N1CCC[C@H]1C(=O)N[C@@H](CCCNC(=N)N)C(=O)N[C@@H](CC(N)=O)C(N)=O ({Propanoyl(3-(3-pyridyl))}-[2Nal][αMeF]RPRN-NH2),Activity,[5],Not Active
same,Activity,[6],Not Active
N=C(N)NCCC[C@H](NC(=O)[C@@H]1CCCN1C(=O)[C@H](CCCNC(=N)N)NC(=O)[C@@H]1Cc2ccccc2CN1C(=O)COc1ccc2ccccc2c1)C(=O)N[C@@H](CC(N)=O)C(N)=O ({Acetyl(2-naphthyloxy)}-[Tic]RPRN-NH2),EC50,[8],30 nM
same,activity at 0.01 µM,[9],30%
same,activity at 1 µM,[10],48%
same,"remaining at 10 min, 50 µM",[2],64%
same,Emax,[11],67%
same,Ratio EC50,[12],30
N=C(N)NCCC[C@H](NC(=O)[C@@H]1CCCN1C(=O)[C@H](CCCNC(=N)N)NC(=O)[C@H](Cc1ccc(-c2ccccc2)cc1)NC(=O)[C@H](Cc1ccc2ccccc2c1)NC(=O)CCc1cccnc1)C(=O)N[C@@H](CC(N)=O)C(N)=O ({Propanoyl(3-(3-pyridyl))}-[2Nal][Bip]RPRN-NH2),"remaining at 3 h, 50 µM",[3],84%
same,EC50,[13],> 1000 nM
same,EC50,[8],3.2 nM
same,activity at 0.01 µM,[9],59%
same,Drug metabolism,[14],Metabolite_Detected
same,Emax,[11],75%
same,Drug metabolism,[15],Metabolite_Detected
same,Ratio EC50,[12],> 300
N=C(N)NCCC[C@H](NC(=O)[C@@H]1CCCN1C(=O)[C@H](CCCNC(=N)N)NC(=O)[C@H](Cc1ccccc1)NC(=O)[C@H](Cc1ccc2ccccc2c1)NC(=O)CCc1cccnc1)C(=O)N[C@@H](CC(N)=O)C(N)=O ({Propanoyl(3-(3-pyridyl))}-[2Nal]FRPRN-NH2),half-life,[16],20 min
same,activity at 0.01 µM,[17],19%
same,activity at 0.01 µM,[9],61%
same,Intrinsic activity,[18],71%
same,"remaining at 10 min, 50 µM",[2],35%
same,EC50,[19],1.7 nM
C[C@@](Cc1c[nH]c2ccccc12)(NC(=O)[C@H](Cc1c[nH]c2ccccc12)NC(=O)Cc1cccs1)C(=O)N[C@@H](CCCNC(=N)N)C(=O)N1CCC[C@H]1C(=O)N[C@@H](CCCNC(=N)N)C(=O)N[C@@H](CC(N)=O)C(N)=O ({Acetyl(2-thienyl)}-W[αMeW]RPRN-NH2),"remaining at 3 h, 50 µM",[3],39%
